Assay results reported in patent US11584765B2 (priority 2017, dated 2023).

Test system: C57BL/6 mice
Assay: animal or person
Format: in vivo
Conditions: Mus musculus, sc, 0.5 h, s.c. administration, 30 min, 55° C. water, read-out: ED50 (mg/kg) at 30 min on C57BL/6 mice in Warm-water Tail-flick Test

SMILES | ED50
CCOCC1(/C=C/c2ccsc2)CCN(Cc2ccc(NC(C)=O)cc2)CC1 [Compound 167, (E)-N-(4-((4-(ethoxymethyl)-4-(2-(thiophen-3-yl)vinyl)piperidin-1-yl)methyl)phenyl)acetamide] | > 10 mg/kg
CCOCC1(/C=C/c2ccc3ccccc3c2)CCN(Cc2ccc(NC(C)=O)cc2)CC1 [Compound 168, (E)-N-(4-((4-(ethoxymethyl)-4-(2-(naphthalen-2-yl)vinyl)piperidin-1-yl)methyl)phenyl)acetamide] | > 10 mg/kg
CCOCC1(CCc2ccccc2)CCN(Cc2ccc(CNC(C)=O)cc2)CC1.Cl [Compound 169, N-(4-((4-(ethoxymethyl)-4-phenethylpiperidin-1-yl)methyl)benzyl)acetamide HCl] | > 10 mg/kg
CCOCC1(CCc2ccccc2OC)CCN(Cc2ccc(NC(C)=O)cc2)CC1 [Compound 170, N-(4-((4-(ethoxymethyl)-4-(2-methoxy-phenethyl)piperidin-1-yl)methyl)phenyl)acetamide] | > 10 mg/kg
CC(=O)Nc1ccc(CN2CCC(CCc3cccs3)(C3CCO3)CC2)cc1 (centres unmarked) [Compound 171, N-(4-((4-(oxetan-2-yl)-4-(2-(thiophen-2-yl)ethyl)piperidin-1-yl)methyl)phenyl)acetamide] | < 10 mg/kg
CC(=O)Nc1ccc(CN2CCC(CCc3cccs3)(C3CCCO3)CC2)cc1 (centres unmarked) [Compound 172, N-(4-((4-(tetrahydrofuran-2-yl)-4-(2-(thiophen-2-yl)ethyl)piperidin-1-yl)methyl)phenyl)acetamide] | < 10 mg/kg
CCOCC1(CCc2ccccc2)CCN(Cc2ccc(NC=O)s2)CC1 [Compound 173, N-(5-((4-(ethoxymethyl)-4-phenethylpiperidin-1-yl)methyl)thiophen-2-yl)formamide] | > 10 mg/kg
CCOCC1(CCc2ccccc2)CCN(c2ccc(CNC(C)=O)cc2)CC1 [Compound 174, N-(4-(4-(ethoxymethyl)-4-phenethylpiperidin-1-yl)benzyl)acetamide] | > 10 mg/kg
CC(=O)Nc1ccc(CN2CCC(CCc3ccccc3)(C3C=CC(C)O3)CC2)cc1 (centres unmarked) [Compound 175, N-(4-((4-(5-methyl-2,5-dihydrofuran-2-yl)-4-phenethylpiperidin-1-yl)methyl)phenyl)acetamide] | < 10 mg/kg
CCOCC1(CCc2ccccc2)CCN(Cc2cccc(NC(C)=O)c2)CC1 [Compound 176, N-(3-((4-(ethoxymethyl)-4-phenethylpiperidin-1-yl)methyl)phenyl)acetamide] | > 10 mg/kg
CCOCC1(CCc2cccs2)CCN(Cc2ccc(NC(C)=O)cc2)C1 (centres unmarked) [Compound 177, N-(4-((3-(ethoxymethyl)-3-(2-(thiophen-2-yl)ethyl)pyrrolidin-1-yl)methyl)phenyl)acetamide] | < 10 mg/kg
CCOCC1(CCc2ccsc2)CCN(Cc2ccc(NC(C)=O)cc2)C1 (centres unmarked) [Compound 178, N-(4-((3-(ethoxymethyl)-3-(2-(thiophen-3-yl)ethyl)pyrrolidin-1-yl)methyl)phenyl)acetamide] | < 10 mg/kg
CC(=O)Nc1ccc(CN2CCC(CCc3ccccc3)(C3C=CCO3)C2)cc1 (centres unmarked) [Compound 179, N-(4-((3-(2,5-dihydrofuran-2-yl)-3-phenethylpyrrolidin-1-yl)methyl)phenyl)acetamide] | < 10 mg/kg
CC(=O)Nc1ccc(CN2CCC(CCc3ccccc3)(C3CCCO3)C2)cc1 (centres unmarked) [Compound 180, N-(4-((3-phenethyl-3-(tetrahydrofuran-2-yl)pyrrolidin-1-yl)methyl)phenyl)acetamide] | > 10 mg/kg
CCOCC1(CCc2ccccc2)CCN(Cc2ccc(CC(=O)OC)cc2)CC1 [Compound 181, methyl 2-(4-((4-(ethoxymethyl)-4-phenethylpiperidin-1-yl)methyl)phenyl)acetate] | > 10 mg/kg
CC(=O)Nc1ccc(CN2CCC(CCc3cccs3)(C3C=CCO3)CC2)cc1 (centres unmarked) [Compound 182, N-(4-((4-(2,5-dihydrofuran-2-yl)-4-(2-(thiophen-2-yl)ethyl)piperidin-1-yl)methyl)phenyl)acetamide] | > 10 mg/kg
CC(=O)Nc1ccc(CN2CCC(CCc3cccs3)(c3ccccn3)CC2)cc1 [Compound 183, N-(4-((4-(pyridin-2-yl)-4-(2-(thiophen-2-yl)ethyl)piperidin-1-yl)methyl)phenyl)acetamide] | > 10 mg/kg
CC(=O)Nc1ccc(CN2CCC(CCc3ccsc3)(c3ccccn3)CC2)cc1 [Compound 184, N-(4-((4-(pyridin-2-yl)-4-(2-(thiophen-3-yl)ethyl)piperidin-1-yl)methyl)phenyl)acetamide] | > 10 mg/kg
CC(=O)Nc1ccc(CN2CCC(CCc3ccsc3)(C3CCO3)CC2)cc1 (centres unmarked) [Compound 185, N-(4-((4-(oxetan-2-yl)-4-(2-(thiophen-3-yl)ethyl)piperidin-1-yl)methyl)phenyl)acetamide] | < 10 mg/kg
CC(=O)Nc1ccc(CN2CCC(CCc3ccsc3)(C3CCCO3)CC2)cc1 (centres unmarked) [Compound 186, N-(4-((4-(tetrahydrofuran-2-yl)-4-(2-(thiophen-3-yl)ethyl)piperidin-1-yl)methyl)phenyl)acetamide] | > 10 mg/kg
CCOCC1(CCc2ccccc2)CCN(Cc2ccc(-c3nnc(N)o3)cc2)CC1 [Compound 187, 5-(4-((4-(ethoxymethyl)-4-phenethylpiperidin-1-yl)methyl)phenyl)-1,3,4-oxadiazol-2-amine] | > 10 mg/kg

SMILES | ED50
CCOCC1(CCc2ccccc2)CCN(Cc2ccc(-c3nnc(OCC)[nH]3)cc2)CC1 [Compound 188, 1-(4-(5-ethoxy-4H-1,2,4-triazol-3-yl)benzyl)-4-(ethoxymethyl)-4-phenethylpiperidine] | > 10 mg/kg
CC(=O)Nc1ccc(CN2CCC(CCc3ccccc3)(c3ccco3)C2)cc1 (centres unmarked) [Compound 189, N-(4-((3-(furan-2-yl)-3-phenethylpyrrolidin-1-yl)methyl)phenyl)acetamide] | > 10 mg/kg
CC(=O)Nc1ccc(CN2CCC(CCc3ccsc3)(c3ccccn3)C2)cc1 (centres unmarked) [Compound 190, N-(4-((3-(pyridin-2-yl)-3-(2-(thiophen-3-yl)ethyl)pyrrolidin-1-yl)methyl)phenyl)acetamide] | > 10 mg/kg
CC(=O)Nc1ccc(CN2CCC(CCc3ccsc3)(C3CCO3)C2)cc1 (centres unmarked) [Compound 191] | < 10 mg/kg
CCn1nnn(CCN2CCC(CCc3ccccc3)(C3CCCO3)C2)c1=O (centres unmarked) [Compound 192, 1-ethyl-4-(2-(3-phenethyl-3-(tetrahydrofuran-2-yl)pyrrolidin-1-yl)ethyl)-1H-tetrazol-5(4H)-one] | > 10 mg/kg
c1ccc(CCC2(C3CCCO3)CCN(Cc3cccn3-c3cccnc3)C2)cc1 (centres unmarked) [Compound 193, 3-(2-((3-phenethyl-3-(tetrahydrofuran-2-yl)pyrrolidin-1-yl)methyl)-1H-pyrrol-1-yl)pyridine] | > 10 mg/kg
c1ccc(CCC2(C3CCCO3)CCN(Cc3ccccc3-c3cccs3)C2)cc1 (centres unmarked) [Compound 194, 3-phenethyl-3-(tetrahydrofuran-2-yl)-1-(2-(thiophen-2-yl)benzyl)pyrrolidine] | > 10 mg/kg
c1ccc(CCC2(C3CCCO3)CCN(Cc3ccccc3-c3ccco3)C2)cc1 (centres unmarked) [Compound 195, 1-(2-(furan-2-yl)benzyl)-3-phenethyl-3-(tetrahydrofuran-2-yl)pyrrolidine] | > 10 mg/kg
Clc1ccccc1CN1CCC(CCc2ccccc2)(C2CCCO2)C1 (centres unmarked) [Compound 196, 1-(2-chlorobenzyl)-3-phenethyl-3-(tetrahydrofuran-2-yl)pyrrolidine] | > 10 mg/kg
Cc1nc(CN2CCC(CCc3ccccc3)(C3CCCO3)C2)cs1 (centres unmarked) [Compound 197, 2-methyl-4-((3-phenethyl-3-(tetrahydrofuran-2-yl)pyrrolidin-1-yl)methyl)thiazole] | > 10 mg/kg
Cn1cc(CN2CCC(CCc3ccccc3)(C3CCCO3)C2)cn1 (centres unmarked) [Compound 198, 1-methyl-4-((3-phenethyl-3-(tetrahydrofuran-2-yl)pyrrolidin-1-yl)methyl)-1H-pyrazole] | < 10 mg/kg
Fc1ccc(-n2cccn2)c(CN2CCC(CCc3ccccc3)(C3CCCO3)C2)c1 (centres unmarked) [Compound 199, 1-(4-fluoro-2-((3-phenethyl-3-(tetrahydrofuran-2-yl)pyrrolidin-1-yl)methyl)phenyl)-1H-pyrazole] | > 10 mg/kg
CC(=O)Nc1ccc(CN2CCC(CCc3ccccc3)(C3(C)CCCO3)C2)cc1 (centres unmarked) [Compound 200, N-(4-((3-(2-methyltetrahydro-furan-2-yl)-3-phenethylpyrrolidin-1-yl)methyl)phenyl)acetamide] | < 10 mg/kg
CC(=O)Nc1ccc(CN2CCC(CCc3ccccc3)(C3OCC3(C)C)C2)cc1 (centres unmarked) [Compound 201, N-(4-((3-(3,3-dimethyloxetan-2-yl)-3-phenethylpyrrolidin-1-yl)methyl)phenyl)acetamide] | < 10 mg/kg
CC(=O)Nc1ccc(CN2CCC(CCc3ccccc3)(C3C=C(C)CO3)C2)cc1 (centres unmarked) [Compound 202, N-(4-((3-(4-methyl-2,5-dihydrofuran-2-yl)-3-phenethylpyrrolidin-1-yl)methyl)phenyl)acetamide] | < 10 mg/kg
CC(=O)Nc1ccc(CN2CCC(CCc3ccccc3)(c3cc(C)co3)C2)cc1 (centres unmarked) [Compound 203, N-(4-((3-(4-methylfuran-2-yl)-3-phenethylpyrrolidin-1-yl)methyl)phenyl)acetamide] | > 10 mg/kg
CCOC[C@@]1(CCc2ccccc2)CCN(Cc2ccc(NC(C)=O)cc2)C1 [Compound 204, (S)-N-(4-((3-(ethoxymethyl)-3-phenethylpyrrolidin-1-yl)methyl)phenyl)acetamide] | > 10 mg/kg
CCOC[C@]1(CCc2ccccc2)CCN(Cc2ccc(NC(C)=O)cc2)C1 [Compound 205, (R)-N-(4-((3-(ethoxymethyl)-3-phenethylpyrrolidin-1-yl)methyl)phenyl)acetamide] | < 10 mg/kg
CCOCC1(CCc2ccccc2)CCN(Cc2ccc(Nc3cnccn3)cc2)C1 (centres unmarked) [Compound 206, N-(4-((3-(ethoxymethyl)-3-phenethylpyrrolidin-1-yl)methyl)phenyl)pyrazin-2-amine] | > 10 mg/kg
CCOCC1(CCc2ccccc2)CCN(Cc2ccc(Nc3ncccn3)cc2)C1 (centres unmarked) [Compound 207, N-(4-((3-(ethoxymethyl)-3-phenethylpyrrolidin-1-yl)methyl)phenyl)pyri-midin-2-amine] | > 10 mg/kg
